{"source": "the NIST ThermoML archive (doi:10.1016/j.jct.2007.02.009)", "key": {"[1]": {"conditions": "Crystal; Adiabatic calorimetry"}, "[2]": {"assay": "Molar enthalpy of transition or fusion", "conditions": "Crystal; Adiabatic calorimetry"}}, "note": "± gives the expanded uncertainty stated by the source.", "data": [{"smiles": "CN(C)C=O", "note": "[dimethylformamide]", "values": [{"measurement": "Triple point temperature", "setting": "[1]", "value": "212.86 ± 0.11", "unit": "K"}, {"measurement": "Molar enthalpy of transition or fusion", "setting": "[2]", "value": "2.14 ± 0.0311", "unit": "kcal/mol"}]}]}
